In ChEMBL document CHEMBL1201862, “PubChem BioAssay data set” (2004):
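96-well plates; 48 h exposure; 5 concentrations. Endpoints by linear interpolation between flanking doses. Not reached: highest tested concentration assigned. GI50 marks 50% less growth.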 Calls of active or inactive are those of the source. Rule as the data show it: active = GI50 up to about 1.1 µM and inactive = higher.

Assays:
Test in all cases: growth of human tumour cells (NCI), 48 h
TK-10 = tested on: TK-10
EKVX = tested on: EKVX
SF-295 = tested on: SF-295
SNB-19 = tested on: SNB-19
HT-29 = tested on: HT-29
A498 = tested on: A498
K562 = tested on: K562
COLO 205 = tested on: COLO 205
OVCAR-4 = tested on: OVCAR-4
HCT-116 = tested on: HCT-116
UACC-257 = tested on: UACC-257
CCRF-CEM = tested on: CCRF-CEM
NCI-H460 = tested on: NCI-H460
SF-268 = tested on: SF-268
U-251 = tested on: U-251
UACC-62 = tested on: UACC-62
OVCAR-8 = tested on: OVCAR-8
ACHN = tested on: ACHN

Measured: GI50

O=C1Nc2ccc(Br)cc2/C1=N/Nc1ccc([N+](=O)[O-])cc1
inactive: TK-10 18.3 µM | EKVX 23.9 µM | SF-295 11.6 µM | SNB-19 19.3 µM | HT-29 57.9 µM | A498 20.7 µM | K562 19.6 µM | COLO 205 27.2 µM | OVCAR-4 17.3 µM | HCT-116 17.1 µM | UACC-257 20.3 µM | CCRF-CEM 33 µM | NCI-H460 17.4 µM | SF-268 17.5 µM | U-251 18.7 µM | UACC-62 27.9 µM | OVCAR-8 14.4 µM | ACHN 18.5 µM

CCCCNC(=O)C1C2CCC(O2)C1C(=O)O (stereo not drawn)
inactive: TK-10 18.1 µM | EKVX 13.7 µM | SF-295 23.1 µM | SNB-19 23.7 µM | HT-29 23.1 µM | A498 12.7 µM | COLO 205 16.6 µM | OVCAR-4 29.6 µM | HCT-116 12 µM | UACC-257 22.8 µM | NCI-H460 41 µM | SF-268 17.7 µM | U-251 13.6 µM | UACC-62 17.5 µM | OVCAR-8 20.5 µM | ACHN 22.6 µM

CCCCCCCC/C=C\CCCCCCCC(=O)NCCN(CCN)C(=O)CCCCCCC/C=C\CCCCCCCC
inactive: TK-10 > 100 µM | SF-295 > 100 µM | SNB-19 > 100 µM | HT-29 > 100 µM | A498 > 100 µM | K562 > 100 µM | COLO 205 > 100 µM | OVCAR-4 > 100 µM | HCT-116 > 100 µM | UACC-257 > 100 µM | CCRF-CEM > 100 µM | NCI-H460 > 100 µM | SF-268 > 100 µM | U-251 > 100 µM | UACC-62 > 100 µM | OVCAR-8 > 100 µM | ACHN > 100 µM

COc1ccc(NC(=O)CC(=O)N/N=C/c2ccc(N(CCC#N)S(=O)(=O)c3ccccc3)cc2)cc1
inactive: TK-10 > 100 µM | EKVX > 100 µM | SF-295 > 100 µM | SNB-19 > 100 µM | HT-29 > 100 µM | K562 > 100 µM | COLO 205 > 100 µM | OVCAR-4 > 100 µM | HCT-116 > 100 µM | UACC-257 > 100 µM | CCRF-CEM > 100 µM | NCI-H460 > 100 µM | SF-268 > 100 µM | U-251 > 100 µM | UACC-62 > 100 µM | OVCAR-8 > 100 µM | ACHN > 100 µM

CCCCCCCCCCC/C(=N/O)c1ccc(O)c2ncccc12
inactive: TK-10 7.35 µM | EKVX 3.52 µM | SF-295 2.71 µM | SNB-19 5.74 µM | HT-29 4.11 µM | COLO 205 45.9 µM | OVCAR-4 2.61 µM | HCT-116 6.64 µM | UACC-257 3.25 µM | NCI-H460 3.65 µM | SF-268 2.9 µM | U-251 4.48 µM | OVCAR-8 4.29 µM | ACHN 2.21 µM

CSc1nc2c(nc(N)n2C2OCC(O)C(O)C2O)c(=O)n1C (stereo not drawn)
inactive: TK-10 > 100 µM | EKVX > 100 µM | SF-295 > 100 µM | SNB-19 > 100 µM | HT-29 > 100 µM | A498 > 100 µM | K562 > 100 µM | COLO 205 > 100 µM | OVCAR-4 > 100 µM | HCT-116 > 100 µM | UACC-257 > 100 µM | CCRF-CEM > 100 µM | NCI-H460 > 100 µM | SF-268 > 100 µM | U-251 > 100 µM | UACC-62 > 100 µM | OVCAR-8 > 100 µM | ACHN > 100 µM

N=C(N)NS(=O)(=O)c1ccc(Nc2c3ccccc3nc3c(C(=O)N4CCN(CCO)CC4)cccc23)cc1
inactive: TK-10 > 100 µM | EKVX > 100 µM | SF-295 > 100 µM | SNB-19 > 100 µM | HT-29 > 100 µM | A498 > 100 µM | K562 > 100 µM | COLO 205 > 100 µM | OVCAR-4 > 100 µM | HCT-116 > 100 µM | UACC-257 > 100 µM | CCRF-CEM > 100 µM | NCI-H460 > 100 µM | SF-268 > 100 µM | U-251 > 100 µM | UACC-62 > 100 µM | OVCAR-8 > 100 µM | ACHN > 100 µM

Fc1cccc(C2SCc3nc4ccccc4n32)c1F (stereo not drawn)
inactive: TK-10 42 µM | EKVX 36.6 µM | SF-295 30.8 µM | SNB-19 > 100 µM | HT-29 79.4 µM | A498 42.2 µM | K562 33 µM | COLO 205 80.5 µM | OVCAR-4 42.1 µM | HCT-116 48.5 µM | UACC-257 32.7 µM | CCRF-CEM 42 µM | NCI-H460 51.5 µM | SF-268 98.4 µM | U-251 82.8 µM | UACC-62 63.5 µM | OVCAR-8 69.3 µM | ACHN 48.5 µM

O=C(Nc1cc(Cl)c(Cl)cc1Cl)C(=O)C(C(=O)c1ccc2ccccc2c1)C1OC(=O)c2ccccc21 (stereo not drawn)
inactive: EKVX 15.4 µM | SF-295 6.59 µM | SNB-19 11.6 µM | HT-29 18.2 µM | A498 12 µM | COLO 205 17 µM | OVCAR-4 > 10 µM | HCT-116 11 µM | UACC-257 14.4 µM | NCI-H460 10.4 µM | SF-268 > 10 µM | U-251 4.47 µM | UACC-62 12.1 µM | OVCAR-8 8 µM | ACHN 16.7 µM

O=C(CSc1c2ccccc2nc2ccccc12)Nc1ccccc1-c1ccccc1NC(=O)CSc1c2ccccc2nc2ccccc12
inactive: TK-10 60.4 µM | EKVX 21.4 µM | SF-295 25.6 µM | SNB-19 22.4 µM | HT-29 34.8 µM | A498 23 µM | K562 2.37 µM | COLO 205 30.1 µM | OVCAR-4 1.48 µM | HCT-116 27.2 µM | UACC-257 22 µM | CCRF-CEM > 24.6 µM | NCI-H460 29 µM | SF-268 26.8 µM | U-251 26.7 µM | UACC-62 18 µM | OVCAR-8 28.5 µM | ACHN 31.5 µM

O=C1CNNC(Cn2nc(-c3ccccc3)c3ccccc3c2=O)=N1
inactive: TK-10 > 100 µM | SF-295 > 100 µM | SNB-19 > 100 µM | HT-29 > 100 µM | A498 > 100 µM | K562 > 100 µM | COLO 205 > 100 µM | OVCAR-4 > 100 µM | HCT-116 > 100 µM | UACC-257 > 100 µM | CCRF-CEM > 100 µM | NCI-H460 > 100 µM | SF-268 > 100 µM | U-251 > 100 µM | UACC-62 > 100 µM | OVCAR-8 > 100 µM | ACHN > 100 µM

O=C(O)CCSCCCN1C(=O)c2ccccc2C1=O
inactive: TK-10 > 100 µM | EKVX > 100 µM | SF-295 > 100 µM | SNB-19 > 100 µM | HT-29 > 100 µM | K562 > 100 µM | COLO 205 > 100 µM | OVCAR-4 > 100 µM | HCT-116 > 100 µM | UACC-257 > 100 µM | SF-268 > 100 µM | U-251 > 100 µM | UACC-62 > 100 µM | OVCAR-8 > 100 µM | ACHN > 100 µM

Cc1ccc(S(=O)(=O)c2c(N)c3nccn3c3nc4ccccc4nc23)cc1
inactive: TK-10 69.8 µM | EKVX > 100 µM | SNB-19 > 100 µM | K562 > 100 µM | COLO 205 > 100 µM | OVCAR-4 > 100 µM | HCT-116 > 100 µM | UACC-257 > 100 µM | CCRF-CEM > 100 µM | NCI-H460 > 100 µM | SF-268 > 100 µM | U-251 > 100 µM | UACC-62 20.4 µM | OVCAR-8 > 100 µM | ACHN 79.8 µM

O=C(Cc1ccccc1)C(c1ccccc1)S(=O)(=O)c1ccccc1 (stereo not drawn)
inactive: TK-10 > 100 µM | EKVX > 100 µM | SF-295 > 100 µM | SNB-19 > 100 µM | HT-29 > 100 µM | A498 > 100 µM | K562 93.3 µM | COLO 205 > 100 µM | OVCAR-4 73.3 µM | HCT-116 59.3 µM | UACC-257 > 100 µM | CCRF-CEM > 100 µM | NCI-H460 > 100 µM | SF-268 > 100 µM | U-251 > 100 µM | UACC-62 75.2 µM | OVCAR-8 > 100 µM | ACHN > 100 µM

COC(=O)CC(=O)C[P+](c1ccccc1)(c1ccccc1)c1ccccc1
inactive: TK-10 > 218 µM | EKVX > 218 µM | SF-295 116 µM | SNB-19 > 218 µM | HT-29 121 µM | K562 68.5 µM | COLO 205 168 µM | HCT-116 60.7 µM | UACC-257 114 µM | CCRF-CEM 55.3 µM | NCI-H460 148 µM | SF-268 > 218 µM | U-251 > 218 µM | UACC-62 178 µM | OVCAR-8 150 µM | ACHN > 218 µM

CCOC(=O)NN1C(=O)C(=P(c2ccccc2)(c2ccccc2)c2ccccc2)C(C(=O)OCC)=C1C
inactive: TK-10 > 100 µM | EKVX > 100 µM | SF-295 > 100 µM | SNB-19 > 100 µM | HT-29 > 100 µM | A498 > 100 µM | K562 > 100 µM | COLO 205 > 100 µM | OVCAR-4 > 100 µM | HCT-116 > 100 µM | UACC-257 > 100 µM | CCRF-CEM > 100 µM | NCI-H460 > 100 µM | SF-268 > 100 µM | U-251 > 100 µM | UACC-62 > 100 µM | OVCAR-8 > 100 µM | ACHN > 100 µM
